Laboratory results: ChEMBL document CHEMBL1145190, “CoMFA and CoMSIA analyses of Pneumocystis carinii dihydrofolate reductase, Toxoplasma gondii dihydrofolate reductase, and rat liver dihydrofolate reductase” (J Med Chem, 2005)
Where “and” joins values, the source holds several entries; their conditions need not be identical. Equal values may be shown once.

Columns and labels:
[1] = target: T1, Dihydrofolate reductase (Pneumocystis carinii, UniProt P16184); assay: (§1) Inhibition of Pneumocystis carinii dihydrofolate reductase
T1 sequence (P16184 whole entry): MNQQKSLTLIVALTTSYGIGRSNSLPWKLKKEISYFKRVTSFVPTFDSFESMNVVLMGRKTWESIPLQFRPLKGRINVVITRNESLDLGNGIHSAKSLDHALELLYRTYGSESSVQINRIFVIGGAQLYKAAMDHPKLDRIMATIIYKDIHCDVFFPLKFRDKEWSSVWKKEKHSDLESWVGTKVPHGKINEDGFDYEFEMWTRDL

[2] = target: T2, Dihydrofolate reductase (Rattus norvegicus, UniProt Q920D2); assay: (§2) Inhibition of rat liver dihydrofolate reductase
T2 sequence (Q920D2 whole entry): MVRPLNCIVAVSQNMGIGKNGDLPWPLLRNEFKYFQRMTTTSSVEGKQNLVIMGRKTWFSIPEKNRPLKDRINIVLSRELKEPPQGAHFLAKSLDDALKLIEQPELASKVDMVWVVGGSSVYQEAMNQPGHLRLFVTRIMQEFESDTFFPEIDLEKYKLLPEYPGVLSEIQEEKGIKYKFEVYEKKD

[3] = target: T2, Dihydrofolate reductase; assay: as §2; remark: listed apart in the source
[4] = target: T3, Bifunctional dihydrofolate reductase-thymidylate synthase (Toxoplasma gondii, UniProt Q07422); assay: (§3) Inhibition of Toxoplasma gondii dihydrofolate reductase
T3 sequence (Q07422 whole entry): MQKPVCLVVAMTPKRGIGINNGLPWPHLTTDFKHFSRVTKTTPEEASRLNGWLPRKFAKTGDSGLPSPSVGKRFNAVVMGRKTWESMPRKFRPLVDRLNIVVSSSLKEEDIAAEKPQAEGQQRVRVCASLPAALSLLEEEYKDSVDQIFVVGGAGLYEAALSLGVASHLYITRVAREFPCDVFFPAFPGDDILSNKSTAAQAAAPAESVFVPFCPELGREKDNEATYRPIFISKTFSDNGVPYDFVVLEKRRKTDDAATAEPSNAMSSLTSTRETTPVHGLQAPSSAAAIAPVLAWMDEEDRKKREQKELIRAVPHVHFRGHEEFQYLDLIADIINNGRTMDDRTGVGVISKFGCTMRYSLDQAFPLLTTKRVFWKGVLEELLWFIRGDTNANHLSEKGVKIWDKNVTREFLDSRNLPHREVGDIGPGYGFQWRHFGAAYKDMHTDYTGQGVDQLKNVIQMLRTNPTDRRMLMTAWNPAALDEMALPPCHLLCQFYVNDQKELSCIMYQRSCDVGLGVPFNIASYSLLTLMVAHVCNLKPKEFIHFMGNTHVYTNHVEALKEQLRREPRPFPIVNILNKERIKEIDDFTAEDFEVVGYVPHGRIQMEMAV

[5] = target: T1, Dihydrofolate reductase; assay: as §1; remark: listed apart in the source
[6] = target: T3, Bifunctional dihydrofolate reductase-thymidylate synthase; assay: as §3; remark: listed apart in the source

SMILES	IC50 [1] [µM]	IC50 [2] [µM]	IC50 [3] [µM]	IC50 [5] [µM]	IC50 [4]	IC50 [6]
COc1cc(CN(C)c2ccc3nc(N)nc(N)c3c2)cc(OC)c1	0.0233	–	–	–	–	–
COc1ccc(-c2ccccc2)cc1NNCc1cnc2nc(N)nc(N)c2c1C	0.064	0.44	0.44	0.064	0.068 µM	0.0681 µM
Nc1nc(N)c2cc(NCc3cccc4ccccc34)ccc2n1	0.72	0.19	0.19	0.72	0.099 µM	0.099 µM
COc1cc(NCc2cnc3nc(N)nc(N)c3c2C)c(O)cc1-n1cccc1	0.35	0.23	0.23	0.35	0.033 µM	0.033 µM
Cc1c(CN(C)c2ccccc2)cnc2nc(N)nc(N)c12	0.03	0.018	0.018	0.03	0.0063 µM	0.0063 µM
Cc1c(C)c(-n2cccc2)c(C)c(C)c1NNCc1cnc2nc(N)nc(N)c2c1C	0.62	0.17	0.17	0.62	0.075 µM	0.075 µM
Nc1nc(N)c2nc(CSc3ccc4ccccc4c3)ccc2n1	0.38	–	–	0.38	–	–
Nc1nc(N)c2nc(CNc3cc(Cl)ccc3Cl)ccc2n1	1.6	–	–	1.6	–	–
Nc1nc(N)c2nc(CNc3ccc(Cl)c(Cl)c3)ccc2n1	0.41	–	–	0.41	–	–
Nc1nc(N)c2nc(CNc3ccc(Cl)cc3Cl)ccc2n1	0.73	–	–	0.73	–	–
Nc1nc(N)c2nc(CNc3cccc4ccccc34)ccc2n1	0.23	–	–	0.23	–	–
CN(Cc1ccc2nc(N)nc(N)c2n1)c1ccc(Cl)c(Cl)c1	0.038	–	–	0.038	–	–
Nc1nc(N)c2nc(CSc3ccccc3)ccc2n1	2	–	–	2	–	–
Cc1c(CN(C)c2ccc(Cl)cc2)cnc2nc(N)nc(N)c12	0.08	0.17	0.17	0.08	0.0017 µM	0.0017 µM
COc1cc(C(C)Nc2cnc3nc(N)nc(N)c3c2)cc(OC)c1OC (stereo unspecified)	–	–	–	–	–	0.182 µM
COc1cc(CN(C)c2cnc3nc(N)nc(N)c3c2)cc(OC)c1	–	–	–	–	0.031 µM	0.031 µM
CN(Cc1cccc2ccccc12)c1ccc2nc(N)nc(N)c2c1	0.017	0.017	0.017	0.017	–	0.021 µM
COc1ccc(N(C)Cc2ccc3nc(N)nc(N)c3n2)cc1	0.25	–	–	0.25	–	–
Nc1nc(N)c2nc(CNc3ccc4ccccc4c3)ccc2n1	1.6	–	–	1.6	–	–
CN(Cc1ccc2nc(N)nc(N)c2n1)c1c(Cl)cccc1Cl	0.17	–	–	0.17	–	–

SMILES	IC50 [1] [µM]	IC50 [2] [µM]	IC50 [3] [µM]	IC50 [5] [µM]	IC50 [4]	IC50 [6]
CN(Cc1ccc2nc(N)nc(N)c2n1)c1cc(Cl)c(Cl)c(Cl)c1	0.25	–	–	0.25	–	–
COc1ccc(NCc2ccc3nc(N)nc(N)c3n2)cc1	0.849	–	–	0.85	–	–
COc1cccc(NCc2ccc3nc(N)nc(N)c3n2)c1	1.7	–	–	1.7	–	–
Nc1nc(N)c2nc(CNc3ccccc3Cl)ccc2n1	0.53	–	–	0.53	–	–
CN(Cc1ccc2nc(N)nc(N)c2n1)c1ccccc1Cl	0.21	–	–	0.21	–	–
Nc1nc(N)c2nc(CNc3cc(Cl)c(Cl)c(Cl)c3)ccc2n1	0.661	–	–	0.66	–	–
COc1ccccc1N(C)Cc1ccc2nc(N)nc(N)c2n1	0.51	–	–	0.51	–	–
COc1ccccc1NCc1ccc2nc(N)nc(N)c2n1	2.7	–	–	2.7	–	–
CN(Cc1ccc2nc(N)nc(N)c2n1)c1cccc2ccccc12	0.04	–	–	0.04	–	–
Nc1nc(N)c2nc(CNc3cccc(Cl)c3)ccc2n1	2	–	–	2	–	–
CN(Cc1ccc2nc(N)nc(N)c2n1)c1ccc(Cl)cc1Cl	0.5	–	–	0.5	–	–
Nc1nc(N)c2nc(CNc3ccccc3)ccc2n1	1.7	–	–	1.7	–	–
COc1cccc(N(C)Cc2ccc3nc(N)nc(N)c3n2)c1	0.097	–	–	0.097	–	–
Nc1nc(N)c2nc(CNc3c(Cl)cccc3Cl)ccc2n1	1	–	–	1	–	–
CN(Cc1ccc2nc(N)nc(N)c2n1)c1ccccc1	0.29	–	–	0.29	0.00084 µM	–
CN(Cc1ccc2nc(N)nc(N)c2n1)c1cc(Cl)ccc1Cl	0.15	–	–	0.15	–	–
Nc1nc(N)c2nc(CSc3cccc4ccccc34)ccc2n1	0.47	0.252	–	0.47	–	–
CN(Cc1ccc2nc(N)nc(N)c2n1)c1ccc2ccccc2c1	0.052	–	–	0.052	–	–
COc1cc(-n2ccc3c4c(N)nc(N)nc4nc(=O)c-3c2)cc(OC)c1OC	4.28	1.12	1.12	4.28	0.24 µM and 0.052 µM	0.24 µM and 0.052 µM
COc1ccccc1NCc1cnc2nc(N)nc(N)c2c1C	0.0689	0.0801	0.0801	0.0689	0.0074 µM	0.0074 µM

Second part, led by results:

IC50 [1] [µM]	IC50 [2] [µM]	IC50 [3] [µM]	IC50 [5] [µM]	SMILES	IC50 [4]	IC50 [6]
–	0.16	–	–	CN(CC1CCc2nc(N)nc(N)c2C1)c1cccc2ccccc12 (stereo unspecified)	–	–
–	–	0.038	–	COc1cc(N(C)CC2CCc3nc(N)nc(N)c3C2)cc(OC)c1OC (stereo unspecified)	–	–
116	22.7	22.7	116	COc1cc(OC)c(CN(C)c2ccc3nc(N)nc(N)c3c2)c(OC)c1	0.95 µM	0.95 µM
–	3.5	3.5	–	COc1cc(NNCc2cnc3nc(N)nc(N)c3c2C)c(-n2cccc2)cc1OC	0.6 µM	0.6 µM
0.94	0.128	0.128	0.94	Nc1nc(N)c2c(n1)CCC(CNc1cccc(Cl)c1)C2 (stereo unspecified)	0.078 µM	0.078 µM
5.5	–	–	5.5	COc1ccc(NCc2ccc3nc(N)nc(N)c3n2)c(OC)c1	–	–
0.16	–	–	0.16	COc1ccc(N(C)Cc2ccc3nc(N)nc(N)c3n2)c(OC)c1	–	–
0.21	–	–	0.21	COc1ccc(OC)c(N(C)Cc2ccc3nc(N)nc(N)c3n2)c1	0.25 µM	–
–	–	1.2	–	COc1cc(OC)c(CNc2cnc3nc(N)nc(N)c3c2)c(OC)c1	–	–
14.1	3.3	3.3	14.1	COc1ccc(CNc2cnc3nc(N)nc(N)c3c2)c(OC)c1OC	0.35 µM	0.35 µM
7.71	2.1	2.1	7.7	COc1cc(CCC2CNc3nc(N)nc(N)c3C2)cc(OC)c1OC (stereo unspecified)	1.1 µM	1.1 µM
–	0.00721	–	–	COc1cc(N(C)Cc2cnc3nc(N)nc(N)c3c2C)cc(OC)c1OC	–	–
0.497	–	–	0.497	CCN(Cc1cnc2nc(N)nc(N)c2c1C)c1cc(OC)c(OC)c(OC)c1	–	–
0.12	0.052	0.052	0.12	COc1cc(N(C)Cc2ccc3nc(N)nc(N)c3n2)cc(OC)c1OC	0.044 µM	0.044 µM
4.4	–	–	4.4	COc1ccc(OC)c(NCc2ccc3nc(N)nc(N)c3n2)c1	–	–
2	–	–	2	COc1cc(NCc2ccc3nc(N)nc(N)c3n2)cc(OC)c1OC	–	–
0.9	–	–	0.9	COc1ccc(NCc2ccc3nc(N)nc(N)c3n2)cc1OC	–	–
0.091	0.27	–	0.091	COc1ccc(N(C)Cc2ccc3nc(N)nc(N)c3n2)cc1OC	–	–
